From PMC7827406, “Structure–Activity Relationship (SAR) Study of Spautin-1 to Entail the Discovery of Novel NEK4 Inhibitors” (International Journal of Molecular Sciences, 2021)
Where two headings read alike, the source gives them in different places.

Assays:
Assay in all cases: biochemical
Set-up in all cases: Eurofins KinaseProfiler full panel at Km ATP, residual kinase activity (%) relative to DMSO
CDK6/cyclinD3(h) = CDK6/cyclinD3(h) (Homo sapiens, UniProt Q00534)
Summary of the method: (§1)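 Compounds screened at 10 µM in radiometric kinase activity assays at Km ATP, reported as remaining kinase activity (%). A KINOMEscan competition-binding screen at 10 µM measured DNA-tagged kinase retained on immobilized active-site ligand by qPCR.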

HIPK4(h) = biological target: T1, HIPK4(h) (Homo sapiens, UniProt Q8NE63)
T1 sequence (Q8NE63 1-616): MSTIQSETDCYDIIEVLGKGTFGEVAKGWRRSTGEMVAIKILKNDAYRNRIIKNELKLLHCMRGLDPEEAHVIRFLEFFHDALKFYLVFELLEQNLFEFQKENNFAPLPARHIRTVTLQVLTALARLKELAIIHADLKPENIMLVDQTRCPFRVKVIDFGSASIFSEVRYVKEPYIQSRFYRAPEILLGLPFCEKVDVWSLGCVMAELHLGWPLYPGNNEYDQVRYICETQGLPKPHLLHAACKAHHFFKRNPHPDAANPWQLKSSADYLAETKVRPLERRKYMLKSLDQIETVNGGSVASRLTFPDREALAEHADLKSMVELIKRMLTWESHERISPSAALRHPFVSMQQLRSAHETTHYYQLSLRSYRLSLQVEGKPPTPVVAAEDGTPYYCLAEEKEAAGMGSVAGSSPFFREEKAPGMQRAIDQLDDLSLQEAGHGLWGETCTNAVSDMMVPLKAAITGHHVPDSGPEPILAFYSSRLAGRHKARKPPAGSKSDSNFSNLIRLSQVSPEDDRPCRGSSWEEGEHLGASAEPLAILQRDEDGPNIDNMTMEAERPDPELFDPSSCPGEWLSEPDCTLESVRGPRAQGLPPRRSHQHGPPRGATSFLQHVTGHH
Summary of the method: as §1

LTK(h) = LTK(h) (Homo sapiens, UniProt P29376)
Chain of LTK(h) (P29376 whole entry): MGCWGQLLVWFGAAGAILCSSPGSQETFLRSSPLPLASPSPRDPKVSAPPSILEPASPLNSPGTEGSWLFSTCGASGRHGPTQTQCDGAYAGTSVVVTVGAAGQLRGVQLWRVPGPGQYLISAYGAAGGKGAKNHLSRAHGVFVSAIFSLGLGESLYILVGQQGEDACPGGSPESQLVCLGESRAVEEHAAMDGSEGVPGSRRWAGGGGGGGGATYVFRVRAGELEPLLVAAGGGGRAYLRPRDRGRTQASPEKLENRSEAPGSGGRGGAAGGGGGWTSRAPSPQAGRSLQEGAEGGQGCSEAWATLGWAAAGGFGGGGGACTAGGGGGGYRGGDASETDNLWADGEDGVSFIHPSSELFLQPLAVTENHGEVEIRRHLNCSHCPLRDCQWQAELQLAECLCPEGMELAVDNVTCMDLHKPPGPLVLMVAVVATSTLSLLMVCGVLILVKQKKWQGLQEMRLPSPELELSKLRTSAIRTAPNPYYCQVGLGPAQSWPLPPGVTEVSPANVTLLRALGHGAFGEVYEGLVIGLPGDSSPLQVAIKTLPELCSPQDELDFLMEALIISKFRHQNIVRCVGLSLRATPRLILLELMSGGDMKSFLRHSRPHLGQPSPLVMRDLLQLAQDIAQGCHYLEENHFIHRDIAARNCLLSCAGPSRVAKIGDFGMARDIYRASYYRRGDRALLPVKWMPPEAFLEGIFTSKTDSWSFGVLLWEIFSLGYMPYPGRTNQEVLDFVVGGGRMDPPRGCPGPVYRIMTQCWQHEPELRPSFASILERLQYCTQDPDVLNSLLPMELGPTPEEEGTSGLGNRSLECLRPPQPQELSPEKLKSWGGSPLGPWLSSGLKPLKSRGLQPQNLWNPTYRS
Summary of the method: as §1

PKCβI(h) = biological target: T2, PKCβI(h) (Homo sapiens, UniProt P05771)
T2 construct: gene PRKCB; isoform beta I
T2 sequence (P05771 whole entry, canonical isoform): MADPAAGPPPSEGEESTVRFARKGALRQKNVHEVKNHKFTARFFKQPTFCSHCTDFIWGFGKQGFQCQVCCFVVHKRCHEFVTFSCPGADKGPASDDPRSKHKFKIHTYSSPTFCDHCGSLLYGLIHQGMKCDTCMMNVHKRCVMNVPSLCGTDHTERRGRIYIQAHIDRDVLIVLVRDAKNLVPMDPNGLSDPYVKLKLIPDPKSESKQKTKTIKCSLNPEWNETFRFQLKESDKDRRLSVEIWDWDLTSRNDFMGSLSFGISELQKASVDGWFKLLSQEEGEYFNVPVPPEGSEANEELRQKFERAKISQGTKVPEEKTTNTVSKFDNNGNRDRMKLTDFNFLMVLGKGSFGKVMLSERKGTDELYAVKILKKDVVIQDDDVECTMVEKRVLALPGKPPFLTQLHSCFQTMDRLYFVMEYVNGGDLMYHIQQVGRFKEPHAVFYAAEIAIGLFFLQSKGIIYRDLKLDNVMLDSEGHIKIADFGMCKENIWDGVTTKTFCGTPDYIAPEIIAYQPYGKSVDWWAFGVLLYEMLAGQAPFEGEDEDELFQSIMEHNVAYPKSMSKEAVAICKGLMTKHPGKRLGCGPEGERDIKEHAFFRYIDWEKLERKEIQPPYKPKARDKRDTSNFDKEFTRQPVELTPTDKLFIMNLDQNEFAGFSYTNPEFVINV
Summary of the method: as §1

PRK1(h) = biological target: T3, PRK1(h) (Homo sapiens, UniProt Q16512)
T3 construct: gene PKN1
T3 sequence (Q16512 whole entry): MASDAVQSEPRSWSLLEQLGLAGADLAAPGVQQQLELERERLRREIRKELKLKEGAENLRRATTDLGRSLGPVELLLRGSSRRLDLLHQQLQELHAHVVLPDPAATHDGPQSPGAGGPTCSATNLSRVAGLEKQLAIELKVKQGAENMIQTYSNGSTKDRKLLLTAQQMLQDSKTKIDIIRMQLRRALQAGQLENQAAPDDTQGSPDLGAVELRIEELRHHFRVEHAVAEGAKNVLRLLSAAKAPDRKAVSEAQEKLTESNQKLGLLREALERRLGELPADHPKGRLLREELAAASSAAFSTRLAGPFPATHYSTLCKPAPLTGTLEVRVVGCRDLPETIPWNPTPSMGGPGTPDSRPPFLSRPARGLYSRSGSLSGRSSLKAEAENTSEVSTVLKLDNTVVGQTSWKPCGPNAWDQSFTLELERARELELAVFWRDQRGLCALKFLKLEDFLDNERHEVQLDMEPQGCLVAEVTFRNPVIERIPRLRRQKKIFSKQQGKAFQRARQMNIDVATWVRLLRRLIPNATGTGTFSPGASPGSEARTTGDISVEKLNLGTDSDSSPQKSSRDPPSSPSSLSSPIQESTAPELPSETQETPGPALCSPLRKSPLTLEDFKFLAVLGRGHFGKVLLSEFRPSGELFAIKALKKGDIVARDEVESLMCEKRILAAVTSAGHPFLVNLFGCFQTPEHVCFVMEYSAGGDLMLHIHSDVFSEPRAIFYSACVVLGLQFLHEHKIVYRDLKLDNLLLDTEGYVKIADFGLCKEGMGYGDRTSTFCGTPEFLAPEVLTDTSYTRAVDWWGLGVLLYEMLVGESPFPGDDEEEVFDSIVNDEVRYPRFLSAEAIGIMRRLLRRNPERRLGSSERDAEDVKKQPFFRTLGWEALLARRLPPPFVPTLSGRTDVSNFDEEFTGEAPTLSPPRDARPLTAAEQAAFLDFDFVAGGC
Summary of the method: as §1

Ret (V804L)(h) = Ret (V804L)(h) (Homo sapiens, UniProt P07949, V804L)
Summary of the method: as §1

TRB2(h) = biological target: T4, TRB2(h) (Homo sapiens, UniProt Q92519)
T4 construct: gene TRIB2
T4 sequence (Q92519 1-343): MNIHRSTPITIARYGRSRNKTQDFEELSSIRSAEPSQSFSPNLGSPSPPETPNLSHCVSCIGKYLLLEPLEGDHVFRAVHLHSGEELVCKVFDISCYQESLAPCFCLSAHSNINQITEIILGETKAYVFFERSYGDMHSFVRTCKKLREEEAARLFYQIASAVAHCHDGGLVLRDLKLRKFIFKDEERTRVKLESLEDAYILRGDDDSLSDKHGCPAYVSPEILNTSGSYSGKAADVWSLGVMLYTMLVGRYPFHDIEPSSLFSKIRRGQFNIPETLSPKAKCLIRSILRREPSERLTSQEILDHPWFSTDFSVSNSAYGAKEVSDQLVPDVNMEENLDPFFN
Summary of the method: as §1

Tie2 (h) = biological target: T5, Tie2 (h) (Homo sapiens, UniProt Q02763)
T5 construct: gene TEK
Summary of the method: as §1

TrkA(h) = biological target: T6, TrkA(h) (Homo sapiens, UniProt P04629)
T6 construct: gene NTRK1
T6 sequence (P04629 whole entry): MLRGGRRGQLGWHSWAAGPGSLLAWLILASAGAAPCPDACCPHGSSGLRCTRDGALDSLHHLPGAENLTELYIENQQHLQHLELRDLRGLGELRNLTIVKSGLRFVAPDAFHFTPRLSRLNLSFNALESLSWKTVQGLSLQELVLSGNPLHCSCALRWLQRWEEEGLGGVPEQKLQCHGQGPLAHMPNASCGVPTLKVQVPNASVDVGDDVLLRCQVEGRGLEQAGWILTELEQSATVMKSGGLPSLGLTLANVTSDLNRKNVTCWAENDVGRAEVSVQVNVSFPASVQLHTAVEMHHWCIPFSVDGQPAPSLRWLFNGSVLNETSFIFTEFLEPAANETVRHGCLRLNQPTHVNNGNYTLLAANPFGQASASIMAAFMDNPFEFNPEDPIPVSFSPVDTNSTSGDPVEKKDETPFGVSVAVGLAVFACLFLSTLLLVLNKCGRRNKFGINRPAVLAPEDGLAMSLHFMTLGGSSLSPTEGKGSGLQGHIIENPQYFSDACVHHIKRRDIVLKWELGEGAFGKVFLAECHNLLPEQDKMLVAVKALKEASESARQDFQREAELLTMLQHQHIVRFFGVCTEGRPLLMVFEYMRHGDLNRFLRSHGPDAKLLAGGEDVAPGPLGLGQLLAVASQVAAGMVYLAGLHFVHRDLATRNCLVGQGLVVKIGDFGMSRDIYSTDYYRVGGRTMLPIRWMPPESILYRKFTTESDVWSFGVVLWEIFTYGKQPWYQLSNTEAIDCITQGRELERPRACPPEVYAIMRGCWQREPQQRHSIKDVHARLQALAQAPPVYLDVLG
Summary of the method: as §1

Wee1B(h) = biological target: T7, Wee1B(h) (Homo sapiens, UniProt P0C1S8)
T7 construct: gene WEE2
T7 sequence (P0C1S8 whole entry): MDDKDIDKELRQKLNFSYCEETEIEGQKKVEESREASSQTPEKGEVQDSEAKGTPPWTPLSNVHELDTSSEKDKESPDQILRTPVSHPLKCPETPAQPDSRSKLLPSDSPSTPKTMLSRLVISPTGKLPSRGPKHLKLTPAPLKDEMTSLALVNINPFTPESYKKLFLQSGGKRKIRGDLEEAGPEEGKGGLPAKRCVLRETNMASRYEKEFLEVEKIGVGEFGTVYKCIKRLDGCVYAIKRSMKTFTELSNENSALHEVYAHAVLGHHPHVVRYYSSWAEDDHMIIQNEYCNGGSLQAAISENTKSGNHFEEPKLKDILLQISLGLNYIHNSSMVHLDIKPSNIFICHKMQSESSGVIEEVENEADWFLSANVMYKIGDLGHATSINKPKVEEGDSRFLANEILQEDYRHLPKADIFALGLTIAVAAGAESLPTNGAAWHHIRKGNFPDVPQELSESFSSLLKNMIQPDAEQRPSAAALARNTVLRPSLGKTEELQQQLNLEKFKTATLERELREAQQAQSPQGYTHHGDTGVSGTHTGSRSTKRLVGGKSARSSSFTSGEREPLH
Summary of the method: as §1

STK33(h) = STK33(h) (Homo sapiens, UniProt Q9BYT3)
Chain of STK33(h) (Q9BYT3 whole entry): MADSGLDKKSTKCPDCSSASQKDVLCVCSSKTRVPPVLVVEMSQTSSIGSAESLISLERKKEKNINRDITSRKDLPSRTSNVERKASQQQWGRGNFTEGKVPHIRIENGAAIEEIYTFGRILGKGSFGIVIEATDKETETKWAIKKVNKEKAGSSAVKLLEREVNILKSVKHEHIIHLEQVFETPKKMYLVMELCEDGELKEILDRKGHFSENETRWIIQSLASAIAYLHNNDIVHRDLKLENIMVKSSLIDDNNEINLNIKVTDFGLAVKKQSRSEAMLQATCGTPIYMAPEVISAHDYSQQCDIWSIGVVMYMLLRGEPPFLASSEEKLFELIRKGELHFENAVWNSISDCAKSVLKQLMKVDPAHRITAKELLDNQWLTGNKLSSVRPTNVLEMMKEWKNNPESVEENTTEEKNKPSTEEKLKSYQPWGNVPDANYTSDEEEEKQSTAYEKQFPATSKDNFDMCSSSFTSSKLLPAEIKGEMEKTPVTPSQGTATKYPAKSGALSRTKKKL
Summary of the method: as §1

[1] = read-out: Residual activity (%) Spautin-1 5aa
[2] = read-out: Residual activity (%) 5as
[3] = read-out: Residual activity (%) 5at
[4] = read-out: Residual activity (%) 5ay

Chain of CDK6/cyclinD3(h) (Q00534 whole entry): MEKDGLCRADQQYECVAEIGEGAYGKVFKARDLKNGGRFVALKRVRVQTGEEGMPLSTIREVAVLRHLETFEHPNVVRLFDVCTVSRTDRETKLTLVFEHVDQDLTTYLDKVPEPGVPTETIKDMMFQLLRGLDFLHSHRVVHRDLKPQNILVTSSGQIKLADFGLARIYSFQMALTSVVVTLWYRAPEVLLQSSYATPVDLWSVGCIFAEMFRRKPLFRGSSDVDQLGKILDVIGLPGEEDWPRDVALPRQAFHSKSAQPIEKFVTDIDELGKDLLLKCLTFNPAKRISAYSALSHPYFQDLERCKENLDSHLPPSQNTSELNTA
Chain of CDK6/cyclinD3(h) (P30281 whole entry partner): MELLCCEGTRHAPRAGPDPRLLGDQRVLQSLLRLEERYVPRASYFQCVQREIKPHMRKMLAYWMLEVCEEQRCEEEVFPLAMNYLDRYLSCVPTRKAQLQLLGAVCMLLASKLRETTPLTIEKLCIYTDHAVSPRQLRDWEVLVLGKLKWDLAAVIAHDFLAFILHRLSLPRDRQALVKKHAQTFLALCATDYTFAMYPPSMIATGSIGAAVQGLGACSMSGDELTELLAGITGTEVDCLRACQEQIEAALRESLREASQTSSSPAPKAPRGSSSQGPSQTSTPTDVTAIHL

For `Fc1ccc(CNc2ncnc3ccc(F)cc23)cc1` [5aa, 6-Fluoro-N-(4-fluorobenzyl)-4-Quinazolinamine], which remaining activity at 10 µM (CDK6/cyclinD3(h); [1]) is on record?
The remaining activity at 10 µM was 102%.

What about the remaining activity at 10 µM (HIPK4(h); [1]) of the same compound?
The remaining activity at 10 µM was 103%.

And the remaining activity at 10 µM (LTK(h); [1])?
Its remaining activity at 10 µM is 88%.

And the remaining activity at 10 µM (PKCβI(h); [1])?
The remaining activity at 10 µM was 95%.

What about the remaining activity at 10 µM (PRK1(h); [1]) of the same compound?
The remaining activity at 10 µM was 89%.

And the remaining activity at 10 µM (Ret (V804L)(h); [1])?
Its remaining activity at 10 µM is 82%.

And the remaining activity at 10 µM (TRB2(h); [1])?
Its remaining activity at 10 µM is 69%.

And the remaining activity at 10 µM (Tie2 (h); [1])?
The remaining activity at 10 µM was 104%.

What about the remaining activity at 10 µM (TrkA(h); [1]) of the same compound?
Its remaining activity at 10 µM is 65%.

And the remaining activity at 10 µM (Wee1B(h); [1])?
Its remaining activity at 10 µM is 95%.

For `Fc1ccc(CCNc2ncnc3ccc(F)cc23)cc1` [5as, 6-Fluoro-N-[2-(4-Fluorophenyl)Ethyl]-4-Quinazolinamine], which remaining activity at 10 µM (CDK6/cyclinD3(h); [2]) is on record?
Its remaining activity at 10 µM is 96%.

What about the remaining activity at 10 µM (HIPK4(h); [2]) of the same compound?
The remaining activity at 10 µM was 92%.

What about the remaining activity at 10 µM (LTK(h); [2]) of the same compound?
Its remaining activity at 10 µM is 76%.

And the remaining activity at 10 µM (PKCβI(h); [2])?
The remaining activity at 10 µM was 100%.

And the remaining activity at 10 µM (PRK1(h); [2])?
Its remaining activity at 10 µM is 72%.

What about the remaining activity at 10 µM (Ret (V804L)(h); [2]) of the same compound?
Its remaining activity at 10 µM is 78%.

And the remaining activity at 10 µM (STK33(h); [2])?
Its remaining activity at 10 µM is 90%.

And the remaining activity at 10 µM (TRB2(h); [2])?
Its remaining activity at 10 µM is 65%.

What about the remaining activity at 10 µM (Tie2 (h); [2]) of the same compound?
The remaining activity at 10 µM was 92%.

And the remaining activity at 10 µM (TrkA(h); [2])?
Its remaining activity at 10 µM is 87%.

And the remaining activity at 10 µM (Wee1B(h); [2])?
The remaining activity at 10 µM was 99%.

How did the remaining activity at 10 µM (CDK6/cyclinD3(h); [3]) turn out when `Fc1ccc2ncnc(NCCc3ccc(Cl)cc3)c2c1` [5at, N-[2-(4-Chlorophenyl)Ethyl]-6-Fluoro-4-Quinazolinamine] was run?
The remaining activity at 10 µM was 98%.

What about the remaining activity at 10 µM (HIPK4(h); [3]) of the same compound?
The remaining activity at 10 µM was 93%.

And the remaining activity at 10 µM (LTK(h); [3])?
Its remaining activity at 10 µM is 74%.

And the remaining activity at 10 µM (PKCβI(h); [3])?
The remaining activity at 10 µM was 93%.

What about the remaining activity at 10 µM (PRK1(h); [3]) of the same compound?
Its remaining activity at 10 µM is 80%.

And the remaining activity at 10 µM (Ret (V804L)(h); [3])?
The remaining activity at 10 µM was 71%.

And the remaining activity at 10 µM (STK33(h); [3])?
The remaining activity at 10 µM was 100%.

And the remaining activity at 10 µM (TRB2(h); [3])?
Its remaining activity at 10 µM is 60%.

What about the remaining activity at 10 µM (Tie2 (h); [3]) of the same compound?
Its remaining activity at 10 µM is 75%.

And the remaining activity at 10 µM (TrkA(h); [3])?
The remaining activity at 10 µM was 60%.

And the remaining activity at 10 µM (Wee1B(h); [3])?
Its remaining activity at 10 µM is 100%.

Which remaining activity at 10 µM (CDK6/cyclinD3(h); [4]) does the source give for `COc1ccc2ncnc(Nc3cccc(F)c3)c2c1` [5ay, N-(3-Fluorophenyl)-6-Methoxy-4-Quinazolinamine] here?
Its remaining activity at 10 µM is 87%.

What about the remaining activity at 10 µM (HIPK4(h); [4]) of the same compound?
Its remaining activity at 10 µM is 42%.

And the remaining activity at 10 µM (LTK(h); [4])?
The remaining activity at 10 µM was 76%.

And the remaining activity at 10 µM (PKCβI(h); [4])?
Its remaining activity at 10 µM is 86%.

What about the remaining activity at 10 µM (PRK1(h); [4]) of the same compound?
Its remaining activity at 10 µM is 77%.

What about the remaining activity at 10 µM (Ret (V804L)(h); [4]) of the same compound?
The remaining activity at 10 µM was 91%.

What about the remaining activity at 10 µM (STK33(h); [4]) of the same compound?
Its remaining activity at 10 µM is 77%.

And the remaining activity at 10 µM (TRB2(h); [4])?
Its remaining activity at 10 µM is 31%.

And the remaining activity at 10 µM (Tie2 (h); [4])?
Its remaining activity at 10 µM is 94%.

What about the remaining activity at 10 µM (TrkA(h); [4]) of the same compound?
The remaining activity at 10 µM was 70%.

And the remaining activity at 10 µM (Wee1B(h); [4])?
Its remaining activity at 10 µM is 106%.
